Reference: patent publication US4594340A, “25,26-dehydro-1α,24R-dihydroxycholecalciferol and 25,26-dehydro-1α,24S-dihydroxycholecalciferol and the epimeric mixture” (Hoffmann-La Roche Inc., priority 1984, dated 1986)

Key:
[1] = system: HL-60 cells; experiment: Differentiation of HL-60 cells by phagocytosis; format: cell-based, human (patient)
Description: (§1) Cultures of HL-60 cells were established in the absence (control) or presence of various concentrations of the test compound. […] Proliferation was assessed by directly enumerating the increased number of tumor cells resulting from incubation. Viability was determined by dye exclusion technique to learn whether any of the compounds were lethal to cultured HL-60 cells. Cellular differentiation was evaluated by determining the number of cells which had acquired the enzymes necessary to support a respiratory burst and the functional ability to phagocytose (bind/internalize) particulate material from their environment; both activities being characteristic of mature macrophages and granulocytes,
Tissure culture medium used in these experiments was RPM1-1640 supplemented prior to use to 10% v/v with fetal bovine serum (heat inactivated at 56° for 30 minutes), to 130 units per ml with penicillin and 130 μg per ml with streptomycin, and to an additional 1.6 millimolar with L-glutamine.
(§2) Experimental compounds were dissolved in sufficient ethanol to yield stock solutions of 1×10^-2 molar. Reduced lighting was employed when working with compounds and stock solutions were stored in the dark at -20° in an argon atmosphere. Compounds were diluted with tissue culture medium and added to flasks containing HL-60 cells to achieve the final concentrations described in each experiment.
(§3) The promyelocytic (HL-60) tumor cell line was derived from a patient with acute promyelocytic leukemia. HL-60 cells were maintained in liquid culture by serial weekly passage in tissue culture medium. In any experiment, three replicate flasks were incubated without compound (control) or in the presence of varying concentrations of compound. […]
Quantitation of differentiated HL-60 cells on a functional basis was done by enumerating the number of cells in any sample which had acquired the ability to phagocytose (bind/internalize) particulate material from their environment, a characteristic of mature macrophages and granulocytes. Sufficient cells were pooled from replicate cultures, centrifuged at 200×g, washed once with serum-free tissue culture medium, and resuspended to 1×10^6 cells per ml in serum-free tissue culture medium. To a 1.0 ml sample in 12×75 mm tubes was added 0.1 ml of a 1:10 dilution from stock of fluorescent microspheres obtained as a gift from Dr. William Dreyer at the California Institute of Technology. Latex beads, yeast cells or red blood cells may also be used in place of fluorescent microsphere in this step. Cells and particle were mixed, incubated for 15 minutes in a 37° water bath, collected in a transfer pipet, and overlayed onto a 5 ml cushion of fetal bovine serum in a 15 ml conical culture tube. After centrifugation at 150×g for 8 minutes, the excess particulate (upper layer) was discarded as was the remainder of the serum cushion leaving only a cell pellet and cell-associated particulate. The resultant pellets were resuspended in 1.0 ml of tissue culture medium containing 10% fetal bovine serum, transferred to a hemacytometer, and evaluated microscopically using both ultraviolet and visible light sources. Undifferentiated and differentiated cells present in any sample were determined microscopically by surveying 200-400 cells per sample. Non-fluorescent cells, identified only by visible light, were judged to be undifferentiated. Generally, differentiated cells were intensely fluorescent clearly indicating extensive phagocytosis of particulate material. Results are expressed as the percentage of differentiated cells present in any sample as calculated according to the formula: [formula]

[2] = system: HL-60 cells; experiment: Differentiation of HL-60 cells by nitroblue tetrazolium (NBT) reduction; format: cell-based, human (patient)
Description: as §1, §2, §3
Quantitation of differentiated cells was done by the biochemical method of nitroblue tetrazolium (NBT) reduction. Sufficient cells were pooled from replicate cultures, centrifuged at 220×g, washed once with serum-free tissue culture medium, and resuspended to 1×10^6 cells per ml in Ca^++ --Mg^++ -deficient phosphate buffered saline (prepared by supplementing Ca^++ --Mg^++ -free phosphate buffered saline (PBS) to 10% v/v with heat-inactivated fetal bovine serum). Nitroblue tetrazolium was dissolved at 1 mg per ml in Ca^++ --Mg^++ -deficient PBS with gentle heating and mixing. Tetradecanoyl phorbol acetate (TPA) was dissolved at 1 mg per ml in ethanol and stored at -20° C. Just prior to use, a working solution of TPA was prepared by diluting the stock concentration 100-fold with Ca^++ --Mg^++ -deficient PBS. The test was done in 12×75 mm tubes by adding 0.5 ml Ca^++ --Mg^++ -deficient PBS, 1.0 ml of HL-60 cells, 0.5 ml of NBT solution, and 0.02 ml of the working TPA solution. After mixing, the tubes were incubated in a 37° water bath for 25 minutes then transferred to ice. Undifferentiated and differentiated cells present in any sample were determined microscopically by surveying 200-400 cells per sample or by cytofluorograph by surveying greater than 30,000 cells. Cells without pigmented granules (clear cells) were judged to be undifferentiated while those containing greater than 3 blue-black formazan granules were scored as differentiated. […] Results are expressed as the percentage of differentiated cells present in any sample as calculated according to the formula: [formula]

EC50 ([2]; Homo sapiens, 96 h, HL-60 cells, NBT test, read-out: HL-60 Test Differentiation NBT Test ED50): 30 nM
SMILES: C=C(C)[C@H](O)CC[C@@H](C)[C@H]1CC[C@H]2/C(=C/C=C3/C[C@@H](O)C[C@H](O)C3=C)CCC[C@]12C [25,26-dehydro-1α,24R-dihydroxycholecalciferol]
% diff. (Phagocytosis) ([1]; 45 × 10^-9 molar, day 3): 53% | diff. cells / total (Phagocytosis) ([1]; 45 × 10^-9 molar, day 3): 174/329 | % diff. (Phagocytosis) ([1]; 45 × 10^-9 molar, day 4): 70% | diff. cells / total (Phagocytosis) ([1]; 45 × 10^-9 molar, day 4): 206/296 | % diff. (Phagocytosis) ([1]; 45 × 10^-9 molar, day 6): 79% | diff. cells / total (Phagocytosis) ([1]; 45 × 10^-9 molar, day 6): 176/223 | % diff. (Phagocytosis) ([1]; 90 × 10^-9 molar, day 3): 69% | diff. cells / total (Phagocytosis) ([1]; 90 × 10^-9 molar, day 3): 181/261 | % diff. (Phagocytosis) ([1]; 90 × 10^-9 molar, day 4): 86% | diff. cells / total (Phagocytosis) ([1]; 90 × 10^-9 molar, day 4): 219/255 | % diff. (Phagocytosis) ([1]; 90 × 10^-9 molar, day 6): 96% | diff. cells / total (Phagocytosis) ([1]; 90 × 10^-9 molar, day 6): 200/218 | cells capable of phagocytosis ([1]; compared with control cultures): dose-related increase in the proportion of cells capable of phagocytosis | induction of cellular differentiation (NBT reduction) ([2]; 5, 15, 45 or 90×10^-9 molar, all incubation times): increasing proportions of differentiated cells at all incubation times | % diff. (NBT reduction) ([2]; 5 × 10^-9 molar, day 3): 5% | diff. cells / total (NBT reduction) ([2]; 5 × 10^-9 molar, day 3): 2443/44545 | % diff. (NBT reduction) ([2]; 5 × 10^-9 molar, day 4): 8% | diff. cells / total (NBT reduction) ([2]; 5 × 10^-9 molar, day 4): 3401/42923 | % diff. (NBT reduction) ([2]; 5 × 10^-9 molar, day 6): 7% | diff. cells / total (NBT reduction) ([2]; 5 × 10^-9 molar, day 6): 3179/47638 | % diff. (NBT reduction) ([2]; 15 × 10^-9 molar, day 3): 22% | diff. cells / total (NBT reduction) ([2]; 15 × 10^-9 molar, day 3): 8971/40398 | % diff. (NBT reduction) ([2]; 15 × 10^-9 molar, day 4): 23% | diff. cells / total (NBT reduction) ([2]; 15 × 10^-9 molar, day 4): 9489/40666 | % diff. (NBT reduction) ([2]; 15 × 10^-9 molar, day 6): 17% | diff. cells / total (NBT reduction) ([2]; 15 × 10^-9 molar, day 6): 8167/47032 | % diff. (NBT reduction) ([2]; 45 × 10^-9 molar, day 3): 49% | diff. cells / total (NBT reduction) ([2]; 45 × 10^-9 molar, day 3): 14932/30509 | % diff. (NBT reduction) ([2]; 45 × 10^-9 molar, day 4): 60% | diff. cells / total (NBT reduction) ([2]; 45 × 10^-9 molar, day 4): 20003/33311 | % diff. (NBT reduction) ([2]; 45 × 10^-9 molar, day 6): 63% | diff. cells / total (NBT reduction) ([2]; 45 × 10^-9 molar, day 6): 22787/36263 | % diff. (NBT reduction) ([2]; 90 × 10^-9 molar, day 3): 62% | diff. cells / total (NBT reduction) ([2]; 90 × 10^-9 molar, day 3): 29458/47866 | % diff. (NBT reduction) ([2]; 90 × 10^-9 molar, day 4): 73% | diff. cells / total (NBT reduction) ([2]; 90 × 10^-9 molar, day 4): 30230/41142 | % diff. (NBT reduction) ([2]; 90 × 10^-9 molar, day 6): 79% | diff. cells / total (NBT reduction) ([2]; 90 × 10^-9 molar, day 6): 35708/45388 | induction of cellular differentiation ([2]; compared with 1α,25-dihydroxycholecalciferol): induced cellular differentiation in a dose dependent fashion | potency relative to 1α,25-dihydroxycholecalciferol (cellular differentiation) ([2]; of that of 1α,25-dihydroxycholecalciferol): 40%
